pIC50: −log10 of the molar value. Where only a bound is given, the exact number is not on record here.

The source of these data is patent US20140005163A1 (NOVARTIS AG, priority 2010, published 2014).

What all share (assay type): biochemical
For one assay, the target named is T1, PI3K delta (Homo sapiens, UniProt O00329).
T1 construct: for the full-length p110-d subunit are generated and fused by overlapping PCR; p85(iSH2) fusion partner (see partner chain) (N); His tag (C); made in house; host or cells: baculovirus; Tn5 (Trichoplusia ni) or TiniPro insect cells
T1 sequence (O00329 with tags, fused parts or gaps limits assumed): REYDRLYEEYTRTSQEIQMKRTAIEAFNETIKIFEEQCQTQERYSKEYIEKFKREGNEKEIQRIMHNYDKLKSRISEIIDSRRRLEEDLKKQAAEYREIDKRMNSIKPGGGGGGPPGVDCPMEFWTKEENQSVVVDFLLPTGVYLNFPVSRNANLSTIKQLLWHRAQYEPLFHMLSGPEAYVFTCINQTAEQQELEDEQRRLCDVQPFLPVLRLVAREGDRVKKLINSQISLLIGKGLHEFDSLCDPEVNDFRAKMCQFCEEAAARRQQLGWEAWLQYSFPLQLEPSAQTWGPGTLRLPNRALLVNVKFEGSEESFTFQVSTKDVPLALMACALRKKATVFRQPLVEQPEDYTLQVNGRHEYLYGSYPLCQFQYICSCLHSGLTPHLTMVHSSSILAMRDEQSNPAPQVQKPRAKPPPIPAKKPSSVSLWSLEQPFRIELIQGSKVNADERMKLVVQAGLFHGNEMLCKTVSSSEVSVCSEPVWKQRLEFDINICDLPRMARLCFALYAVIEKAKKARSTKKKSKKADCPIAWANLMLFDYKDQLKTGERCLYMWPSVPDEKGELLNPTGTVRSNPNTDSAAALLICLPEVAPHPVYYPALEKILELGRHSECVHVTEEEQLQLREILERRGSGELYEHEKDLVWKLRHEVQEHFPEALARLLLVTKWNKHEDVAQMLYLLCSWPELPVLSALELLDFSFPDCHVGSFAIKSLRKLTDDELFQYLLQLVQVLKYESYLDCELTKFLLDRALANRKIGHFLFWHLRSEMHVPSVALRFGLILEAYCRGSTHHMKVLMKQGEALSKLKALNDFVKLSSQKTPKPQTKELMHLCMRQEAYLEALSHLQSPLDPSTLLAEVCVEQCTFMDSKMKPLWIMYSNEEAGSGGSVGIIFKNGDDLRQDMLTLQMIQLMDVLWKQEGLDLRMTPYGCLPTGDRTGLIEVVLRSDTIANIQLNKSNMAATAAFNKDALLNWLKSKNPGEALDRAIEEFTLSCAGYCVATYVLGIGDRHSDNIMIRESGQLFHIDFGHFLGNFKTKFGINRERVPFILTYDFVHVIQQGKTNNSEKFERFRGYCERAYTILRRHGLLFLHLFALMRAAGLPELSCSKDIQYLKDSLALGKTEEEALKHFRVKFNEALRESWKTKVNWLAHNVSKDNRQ
Put plainly: PI3K delta kinase assay (Kinase-Glo luminescence). Summed up:
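Lipid kinase activity of a His-tagged p110δ full-length/p85 iSH2 fusion (10 nM) toward bovine liver phosphatidylinositol (10 μg/mL) at 1 μM ATP, pH 7.5, 60 min, room temperature. ATP consumption is quantified by luciferase-based luminescence. Four-parameter logistic fitting gives IC50.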
On the technique in general: In Kinase-Glo more light means more ATP remaining.

The next assay addresses T2, PI3K beta (Homo sapiens, UniProt P42338).
T2 construct: for the full-length p110-b subunit are generated and fused by overlapping PCR; p85(iSH2) fusion partner (see partner chain) (N); His tag (C); made in house; host or cells: baculovirus; Tn5 (Trichoplusia ni) or TiniPro insect cells
Put plainly: PI3K beta kinase assay (Kinase-Glo luminescence). The method in brief:
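Residual ATP after a 60 min room-temperature reaction is quantified by Kinase-Glo luminescence. Enzyme: 25 nM BV-949 (p85 iSH2–linker–full-length p110β); substrates 1 μM ATP, 10 μg/mL PI; buffer Tris pH 7.5, MgCl2, NaCl, CHAPS, DTT. Eight concentrations per compound, four-parameter logistic IC50.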

The next assay addresses T3, PI3K alpha (Homo sapiens, UniProt P42336).
T3 construct: p85(iSH2) fusion partner (see partner chain) (N); His tag (C); made in house; host or cells: baculovirus; Tn5 (Trichoplusia ni) or TiniPro insect cells
The assay is described as follows: PI3K alpha kinase assay (Kinase-Glo luminescence). The method in brief: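 Enzyme 10 nM PI3Kα EMV B1075; ATP 1 μM; PI 10 μg/mL; Tris-HCl pH 7.5 10 mM, MgCl2 3 mM, NaCl 50 mM, CHAPS 0.05%, DTT 1 mM; 60 min RT; Kinase-Glo luminescence; 4-parameter IC50 fit, 8 concentrations, single points.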

T3 sequence (P42336 with tags, fused parts or gaps limits assumed): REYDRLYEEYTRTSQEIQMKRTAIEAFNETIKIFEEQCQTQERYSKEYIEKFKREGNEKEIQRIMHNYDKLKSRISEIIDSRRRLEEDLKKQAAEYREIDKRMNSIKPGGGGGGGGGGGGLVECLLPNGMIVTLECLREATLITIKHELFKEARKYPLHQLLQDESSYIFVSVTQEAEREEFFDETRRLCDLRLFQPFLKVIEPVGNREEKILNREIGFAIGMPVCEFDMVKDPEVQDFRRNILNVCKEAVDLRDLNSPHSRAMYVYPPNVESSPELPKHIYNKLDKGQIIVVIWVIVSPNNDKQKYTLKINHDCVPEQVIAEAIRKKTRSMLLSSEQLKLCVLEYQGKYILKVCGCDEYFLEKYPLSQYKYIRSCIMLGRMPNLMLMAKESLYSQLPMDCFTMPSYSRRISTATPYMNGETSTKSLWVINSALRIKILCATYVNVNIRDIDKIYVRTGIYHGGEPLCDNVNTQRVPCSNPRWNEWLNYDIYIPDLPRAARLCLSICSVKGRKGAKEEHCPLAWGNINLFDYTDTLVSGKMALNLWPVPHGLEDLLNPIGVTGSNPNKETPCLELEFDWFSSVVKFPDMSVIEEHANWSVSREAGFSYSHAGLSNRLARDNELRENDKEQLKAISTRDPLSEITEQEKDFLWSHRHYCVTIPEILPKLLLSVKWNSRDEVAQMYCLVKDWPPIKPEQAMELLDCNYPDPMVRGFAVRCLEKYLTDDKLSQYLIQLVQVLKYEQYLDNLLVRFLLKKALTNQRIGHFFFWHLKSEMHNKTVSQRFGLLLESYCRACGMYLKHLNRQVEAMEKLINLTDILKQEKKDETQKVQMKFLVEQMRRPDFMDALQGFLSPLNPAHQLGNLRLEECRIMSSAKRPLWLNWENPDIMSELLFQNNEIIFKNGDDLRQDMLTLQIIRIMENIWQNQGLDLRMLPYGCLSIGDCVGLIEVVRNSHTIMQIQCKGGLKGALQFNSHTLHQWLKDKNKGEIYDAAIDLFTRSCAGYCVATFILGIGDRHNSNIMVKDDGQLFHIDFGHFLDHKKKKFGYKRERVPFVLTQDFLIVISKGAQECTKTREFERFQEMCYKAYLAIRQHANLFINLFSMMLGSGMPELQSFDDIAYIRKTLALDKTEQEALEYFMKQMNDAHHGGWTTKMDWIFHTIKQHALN
T2 sequence (P42338 with tags, fused parts or gaps limits assumed): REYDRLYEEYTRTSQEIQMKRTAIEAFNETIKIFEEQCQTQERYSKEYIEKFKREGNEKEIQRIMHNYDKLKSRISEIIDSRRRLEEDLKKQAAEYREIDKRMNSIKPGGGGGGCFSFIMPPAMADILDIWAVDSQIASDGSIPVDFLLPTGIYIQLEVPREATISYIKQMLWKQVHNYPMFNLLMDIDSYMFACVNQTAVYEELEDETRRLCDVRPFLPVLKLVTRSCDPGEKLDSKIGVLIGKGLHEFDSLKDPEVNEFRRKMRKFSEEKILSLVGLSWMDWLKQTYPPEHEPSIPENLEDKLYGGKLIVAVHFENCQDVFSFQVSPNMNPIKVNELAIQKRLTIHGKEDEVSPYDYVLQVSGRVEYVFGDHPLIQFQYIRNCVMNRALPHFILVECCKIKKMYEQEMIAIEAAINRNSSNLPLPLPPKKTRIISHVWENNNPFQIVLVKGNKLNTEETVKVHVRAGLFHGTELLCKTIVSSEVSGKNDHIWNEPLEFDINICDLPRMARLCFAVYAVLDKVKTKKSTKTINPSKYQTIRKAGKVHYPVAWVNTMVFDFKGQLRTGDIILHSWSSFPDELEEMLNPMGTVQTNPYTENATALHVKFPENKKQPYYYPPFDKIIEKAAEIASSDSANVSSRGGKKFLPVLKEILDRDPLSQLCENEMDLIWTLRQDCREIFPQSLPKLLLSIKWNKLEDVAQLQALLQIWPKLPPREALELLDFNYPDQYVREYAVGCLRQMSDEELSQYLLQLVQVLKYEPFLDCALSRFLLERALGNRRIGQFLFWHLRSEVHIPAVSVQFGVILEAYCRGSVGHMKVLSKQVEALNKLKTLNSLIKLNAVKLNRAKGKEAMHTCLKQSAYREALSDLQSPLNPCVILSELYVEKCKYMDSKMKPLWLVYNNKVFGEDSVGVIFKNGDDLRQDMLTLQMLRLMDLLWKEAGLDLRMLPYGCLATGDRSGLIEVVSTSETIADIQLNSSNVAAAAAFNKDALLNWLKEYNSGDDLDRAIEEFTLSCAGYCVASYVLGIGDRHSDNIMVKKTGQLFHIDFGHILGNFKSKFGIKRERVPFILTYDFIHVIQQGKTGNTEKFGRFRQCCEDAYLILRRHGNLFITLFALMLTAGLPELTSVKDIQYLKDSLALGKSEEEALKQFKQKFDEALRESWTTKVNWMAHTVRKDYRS

As a reminder, the pIC50 is −log10 of the IC50, conventionally taken in molar units. Take `COc1ncc(-c2ccc3ncc4c(c3c2)n(-c2cn(C)nc2C)c(=O)n4C)cc1N(C)C(C)=O` [Example 62, N-{5-[1-(1,3-Dimethyl-1H-pyrazol-4-yl)-3-methyl-2-oxo-2,3-dihydro-1H-imidazo[4,5-c]quinolin-8-yl]-2-methoxy-pyridin-3-yl}-N-methyl-acetamide]: the pIC50 at PI3K delta was 7.80; at PI3K beta, 7.08; on PI3K alpha it was 7.21.

With `[2H]C([2H])([2H])Nc1ncc(-c2ccc3ncc4c(c3c2)n(-c2c(C)nn(C)c2C)c(=O)n4C)cc1C(F)(F)F` [Example 143, 3-Methyl-8-(6-trideuteromethylamino-5-trifluoromethyl-pyridin-3-yl)-1-(1,3,5-trimethyl-1H-pyrazol-4-yl)-1,3-dihydro-imidazo[4,5-c]quinolin-2-one], the pIC50 on PI3K delta is 8.00; at PI3K beta, 6.95; on PI3K alpha, 7.72.

Turning to `Cc1nn(C)cc1-n1c(=O)n(C)c2cnc3ccc(-c4cnc(Cl)c(NS(C)(=O)=O)c4)cc3c21` [Example 223, N-{2-Chloro-5-[1-(1,3-dimethyl-1H-pyrazol-4-yl)-3-methyl-2-oxo-2,3-dihydro-1H-imidazo[4,5-c]quinolin-8-yl]-pyridin-3-yl}-methanesulfonamide], the pIC50 was 8.22 on PI3K delta, 8.15 on PI3K beta and 8.52 at PI3K alpha.

Turning to `Cc1cc(-n2c(=O)n(C)c3cnc4ccc(-c5cncc(N6CCOCC6)c5)cc4c32)n(C)n1` [Example 175.2, 1-(2,5-Dimethyl-2H-pyrazol-3-yl)-3-methyl-8-(5-morpholin-4-yl-pyridin-3-yl)-1,3-dihydro-imidazo[4,5-c]quinolin-2-one], the pIC50 on PI3K delta was 6.63; on PI3K alpha, 6.70.

Consider `COCCOc1cc(-c2ccc3ncc4c(c3c2)n(-c2cn(C)nc2C)c(=O)n4C)cnc1C` [Example 86.2, 1-(1,3-Dimethyl-1H-pyrazol-4-yl)-8-[5-(2-methoxy-ethoxy)-6-methyl-pyridin-3-yl]-3-methyl-1,3-dihydro-imidazo[4,5-c]quinolin-2-one], for which the pIC50 on PI3K delta is 8.22; on PI3K beta, 7.68; on PI3K alpha, 8.05.

Regarding `COc1ncc(-c2ccc3ncc4c(c3c2)n(-c2cn(C)nc2Cl)c(=O)n4C)cc1CO` [Example 200, 1-(3-Chloro-1-methyl-1H-pyrazol-4-yl)-8-(5-hydroxymethyl-6-methoxy-pyridin-3-yl)-3-methyl-1,3-dihydro-imidazo[4,5-c]quinolin-2-one], the pIC50 at PI3K delta is 8.00; at PI3K beta, 7.89; at PI3K alpha, 8.05.

As to `CNc1ncc(-c2ccc3ncc4c(c3c2)n(-c2c(C)nn(C)c2C)c(=O)n4C)cn1` [Example 80.2], the negative-log IC50 (pIC50) on PI3K delta is 7.60; at PI3K beta, 6.54; on PI3K alpha, 7.38.

On to `Cc1nn(CC(=O)N(C)C)c(C)c1-n1c(=O)n(C)c2cnc3ccc(-c4cnc(N)c(C(F)(F)F)c4)cc3c21` [Example 25.2, 2-{4-[8-(6-Amino-5-trifluoromethyl-pyridin-3-yl)-3-methyl-2-oxo-2,3-dihydro-imidazo[4,5-c]quinolin-1-yl]-3,5-dimethyl-pyrazol-1-yl}-N,N-dimethyl-acetamide], for which the pIC50 at PI3K delta was 7.49; on PI3K beta it was 6.24; at PI3K alpha it was 7.89.

`COCc1cc(-c2ccc3ncc4c(c3c2)n(-c2cn(C)nc2Cl)c(=O)n4C)cnc1OC` [Example 201, 1-(3-Chloro-1-methyl-1H-pyrazol-4-yl)-8-(6-methoxy-5-methoxymethyl-pyridin-3-yl)-3-methyl-1,3-dihydro-imidazo[4,5-c]quinolin-2-one]: the pIC50 was above 8.52 at PI3K delta, 8.22 at PI3K beta and 8.40 on PI3K alpha.

`Cc1nn(C)cc1-n1c(=O)n(C)c2cnc3ccc(-c4cccc(OC(C)C)c4F)cc3c21` [Example 83, 1-(1,3-Dimethyl-1H-pyrazol-4-yl)-8-(2-fluoro-3-isopropoxy-phenyl)-3-methyl-1,3-dihydro-imidazo[4,5-c]quinolin-2-one]: the pIC50 at PI3K delta is 6.63; at PI3K alpha, 7.13.
